Source: publication PMC6254361, “The properties of Msh2–Msh6 ATP binding mutants suggest a signal amplification mechanism in DNA mismatch repair” (The Journal of Biological Chemistry, 2018)

Biological target: T1, Msh2–Msh6 (Saccharomyces cerevisiae, UniProt P25847+Q03834, P25847:K694A)
T1 sequence (P25847 1-964 K694A): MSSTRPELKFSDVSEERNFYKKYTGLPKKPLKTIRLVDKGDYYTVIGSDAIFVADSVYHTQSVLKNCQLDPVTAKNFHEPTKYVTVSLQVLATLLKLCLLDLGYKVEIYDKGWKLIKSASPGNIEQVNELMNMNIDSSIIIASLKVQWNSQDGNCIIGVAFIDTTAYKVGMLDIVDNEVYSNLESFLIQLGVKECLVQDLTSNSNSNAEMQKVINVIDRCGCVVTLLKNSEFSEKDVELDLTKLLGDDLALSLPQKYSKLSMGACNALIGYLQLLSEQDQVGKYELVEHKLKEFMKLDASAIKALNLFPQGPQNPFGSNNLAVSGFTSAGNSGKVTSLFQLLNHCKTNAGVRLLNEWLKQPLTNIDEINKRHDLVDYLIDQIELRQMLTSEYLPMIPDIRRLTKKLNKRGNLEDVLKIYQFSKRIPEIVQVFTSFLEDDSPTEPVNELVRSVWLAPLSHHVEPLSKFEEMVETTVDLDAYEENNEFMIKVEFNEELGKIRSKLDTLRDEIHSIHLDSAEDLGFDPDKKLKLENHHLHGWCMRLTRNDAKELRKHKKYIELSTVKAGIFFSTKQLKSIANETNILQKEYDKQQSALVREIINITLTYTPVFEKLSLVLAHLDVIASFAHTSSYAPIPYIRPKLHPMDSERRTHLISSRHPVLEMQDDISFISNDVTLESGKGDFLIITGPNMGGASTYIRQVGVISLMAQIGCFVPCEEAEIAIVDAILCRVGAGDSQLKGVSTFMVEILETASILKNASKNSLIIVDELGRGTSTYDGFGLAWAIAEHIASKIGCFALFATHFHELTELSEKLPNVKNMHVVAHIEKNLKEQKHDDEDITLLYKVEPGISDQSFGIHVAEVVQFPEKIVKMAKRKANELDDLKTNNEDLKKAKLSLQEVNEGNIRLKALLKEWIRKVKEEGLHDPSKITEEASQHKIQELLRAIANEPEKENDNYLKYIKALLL
T1 sequence (Q03834 1-1242): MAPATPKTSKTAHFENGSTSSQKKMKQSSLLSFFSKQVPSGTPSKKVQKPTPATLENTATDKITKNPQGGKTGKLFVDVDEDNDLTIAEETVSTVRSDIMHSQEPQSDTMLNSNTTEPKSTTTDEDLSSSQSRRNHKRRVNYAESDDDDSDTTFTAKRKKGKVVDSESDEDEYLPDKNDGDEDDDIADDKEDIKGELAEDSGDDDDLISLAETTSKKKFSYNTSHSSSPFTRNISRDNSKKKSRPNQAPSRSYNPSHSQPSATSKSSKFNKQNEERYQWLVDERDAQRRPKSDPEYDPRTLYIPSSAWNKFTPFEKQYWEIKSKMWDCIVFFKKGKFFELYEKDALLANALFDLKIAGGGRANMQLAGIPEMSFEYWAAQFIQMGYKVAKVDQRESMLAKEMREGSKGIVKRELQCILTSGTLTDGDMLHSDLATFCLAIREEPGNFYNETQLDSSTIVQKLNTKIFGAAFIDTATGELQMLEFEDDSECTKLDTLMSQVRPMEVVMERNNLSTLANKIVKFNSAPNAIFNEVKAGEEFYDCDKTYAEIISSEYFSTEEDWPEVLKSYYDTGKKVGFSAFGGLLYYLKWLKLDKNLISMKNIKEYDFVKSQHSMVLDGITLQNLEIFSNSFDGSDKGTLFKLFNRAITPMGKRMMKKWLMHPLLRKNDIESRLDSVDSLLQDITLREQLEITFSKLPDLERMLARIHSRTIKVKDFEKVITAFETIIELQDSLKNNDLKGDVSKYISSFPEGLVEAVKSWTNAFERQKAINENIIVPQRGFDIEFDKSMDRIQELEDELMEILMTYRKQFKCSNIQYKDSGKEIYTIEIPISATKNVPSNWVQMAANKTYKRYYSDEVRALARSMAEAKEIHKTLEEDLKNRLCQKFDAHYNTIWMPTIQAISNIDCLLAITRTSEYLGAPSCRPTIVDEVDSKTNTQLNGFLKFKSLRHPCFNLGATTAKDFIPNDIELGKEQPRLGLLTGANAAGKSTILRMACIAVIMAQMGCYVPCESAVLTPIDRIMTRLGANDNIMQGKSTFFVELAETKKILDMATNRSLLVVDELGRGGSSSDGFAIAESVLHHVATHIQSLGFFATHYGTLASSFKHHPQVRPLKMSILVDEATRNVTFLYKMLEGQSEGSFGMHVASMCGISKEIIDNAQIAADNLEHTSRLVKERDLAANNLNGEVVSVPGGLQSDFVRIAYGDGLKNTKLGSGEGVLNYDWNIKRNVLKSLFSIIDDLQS
Assay: UV cross-linking of [γ-32P]ATP, SDS-PAGE, phosphorimaging
Format: binding
Conditions: labelled compound; no Mg2+, EDTA, pH 8, on ice; Msh2 site at 60 μM ATP, Msh6 site at 1 μM ATP

Nc1ncnc2c1ncn2[C@@H]1O[C@H](COP(=O)(O)OP(=O)(O)OP(=O)(O)O)[C@@H](O)[C@H]1O [ATP]
relative ATP binding: Msh2(K694A)–Msh6 and Msh2(K694R)–Msh6 mutant complexes were defective for ATP binding to both
